These results are taken from ChEMBL document CHEMBL3044717, “Synthesis and QSAR modeling 1-[3-methyl-2-(aryldiazenyl)-2H-aziren-2-yl]ethanones as potential antibacterial agents” (2013).

What all share (type): functional
One test relates to Staphylococcus aureus. As to the kind of experiment: Antibacterial activity against Staphylococcus aureus ATCC 2943 assessed as growth inhibition after 16-24 hr by two-fold serial dilution method.
Another test relates to Bacillus subtilis. As to the kind of experiment: Antibacterial activity against Bacillus subtilis ATCC 6633 assessed as growth inhibition after 16-24 hr by two-fold serial dilution method.
The subject of a further test is Brevundimonas diminuta. As to the kind of experiment: Antibacterial activity against Brevundimonas diminuta MTCC 3361 assessed as growth inhibition after 16-24 hr by two-fold serial dilution method.
For a further test, the system named is Escherichia coli. As to the kind of experiment: Antibacterial activity against Escherichia coli ATCC 13607 assessed as growth inhibition after 16-24 hr by two-fold serial dilution method.

Structures are written as SMILES.

On to `COc1cccc(/N=N/C2(C(C)=O)N=C2C)c1` (configuration not stated), for which the entries for the “-logMIC” value with Staphylococcus aureus, in the test with Bacillus subtilis and with Brevundimonas diminuta were 4.328, 4.366 and 4.377, respectively.

Take `COc1ccccc1/N=N/C1(C(C)=O)N=C1C` (configuration not stated): the entries for the “-logMIC” value with Staphylococcus aureus, in the test with Bacillus subtilis and in the test with Brevundimonas diminuta were 4.119, 4.056 and 4.072, respectively.

For `CC(=O)C1(/N=N/c2ccccc2C)N=C1C` (configuration not stated), the results for the “-logMIC” value in the test on Staphylococcus aureus, in the test on Bacillus subtilis and in the test with Escherichia coli were 4.339, 4.378 and 4.378, respectively.

`CC(=O)C1(/N=N/c2ccccc2Cl)N=C1C` (configuration not stated): the entries for the “-logMIC” value with Staphylococcus aureus, with Bacillus subtilis and with Brevundimonas diminuta were 4.317, 4.348 and 4.354, respectively.

`CC(=O)C1(/N=N/c2cccc(C(=O)O)c2)N=C1C` (configuration not stated): the “-logMIC” value in the test with Staphylococcus aureus amounted to 4.178; in the test with Bacillus subtilis, 4.446; in the test with Escherichia coli, 4.223; in the test on Brevundimonas diminuta, 4.138.

For `CC(=O)C1(/N=N/c2ccc(C)cc2)N=C1C` (configuration not stated), the results for the “-logMIC” value in the test with Staphylococcus aureus and with Bacillus subtilis were 4.178 and 4.298, respectively.

Regarding `CC(=O)C1(/N=N/c2ccc(C(=O)O)cc2)N=C1C` (configuration not stated), the “-logMIC” value with Staphylococcus aureus came out at 4.358; with Bacillus subtilis, 4.376; in the test with Escherichia coli, 4.341; in the test with Brevundimonas diminuta, 4.243.

On to `CC(=O)C1(/N=N/c2ccc(Br)cc2)N=C1C` (configuration not stated), for which the “-logMIC” value in the test with Staphylococcus aureus stood at 4.433; in the test on Bacillus subtilis it was 4.401; in the test with Escherichia coli, 4.414.

`CC(=O)C1(/N=N/c2cccc([N+](=O)[O-])c2)N=C1C` (configuration not stated): the “-logMIC” value in the test with Staphylococcus aureus is listed as 4.421; with Bacillus subtilis, 4.245; in the test with Escherichia coli, 4.257; with Brevundimonas diminuta it was 4.336.

For the compound `CC(=O)C1(/N=N/c2ccc([N+](=O)[O-])cc2)N=C1C` (configuration not stated), the “-logMIC” value with Staphylococcus aureus amounted to 4.492; in the test with Bacillus subtilis it was 4.221; in the test with Escherichia coli, 4.253; with Brevundimonas diminuta it was 4.287.

Regarding `CC(=O)C1(/N=N/c2ccccc2)N=C1C` (configuration not stated), the “-logMIC” value is recorded as 4.032 with Staphylococcus aureus, 4.026 in the test with Bacillus subtilis and 4.024 in the test with Brevundimonas diminuta.

With `CC(=O)C1(/N=N/c2ccc(Cl)cc2)N=C1C` (configuration not stated), the results for the “-logMIC” value with Staphylococcus aureus, with Bacillus subtilis and in the test on Brevundimonas diminuta were 4.014, 4.078 and 4.096, respectively.

For the compound `CC(=O)C1(/N=N/c2cccc(C)c2)N=C1C` (configuration not stated), the “-logMIC” value in the test on Staphylococcus aureus was found to be 4.298; in the test on Bacillus subtilis, 4.213.

For the compound `CC(=O)C1(/N=N/c2cccc(Br)c2)N=C1C` (configuration not stated), the “-logMIC” value with Staphylococcus aureus is listed as 4.457; with Bacillus subtilis it was 4.425; in the test on Escherichia coli, 4.441.

As to `CC(=O)C1(/N=N/c2cccc(Cl)c2)N=C1C` (configuration not stated), the “-logMIC” value in the test with Staphylococcus aureus was determined as 4.324; in the test with Bacillus subtilis it was 4.315; in the test with Brevundimonas diminuta it was 4.325.
